From patent US9012190B2, “Use of thiamine and nicotine adenine dinucleotide for butanol production” (Butamax Advanced Biofuels LLC, priority 2011, dated 2015)

How the values were obtained:
[1] = tested on: isobutanol producing NYLA84 strain; experiment: Shake flask cultivations with nicotinic acid, vitamin solution or YEP (Example 6); type: cell-based, Saccharomyces cerevisiae
Experimental: (§1) The aerobic shake flasks with air permeable lid were incubated at 30° C. and 260 rpm.

[2] = tested on: BP1063 isobutanol producing strain; details: bioreactor; NA concentrations of as low as 5 mg/L; vs water control
Experimental: One liter (1 L) of inoculum medium contained: 6.7 g, Yeast Nitrogen Base w/o amino acids (Difco 0919-15-3); 2.8 g, Yeast Synthetic Drop-out Medium Supplement Without histidine, leucine, tryptophan and uracil (Sigma Y2001); 20 mL of 1% (w/v) L-leucine; 4 mL of 1% (w/v) L-tryptophan; 1 mL of ergosterol and Tween 80 solution; 3 g of ethanol; 3 g of glucose. Preparation of ergosterol and Tween 80 solution: for 10 mL of the solution, 100 mg of ergosterol was dissolve in 5 mL 100% EtOH and 5 mL Tween 80. It was heated at 70° C. for 10 minutes.
A 125 mL shake flask was inoculated directly from a frozen vial by pipetting the whole vial culture (approx. 1 ml) into 10 mL of the inoculum medium. The flask was incubated at 260 rpm and 30° C. The strain was grown overnight until OD about 1.0. At this point four 2 L baffled shake flasks with 90 mL of the inoculum medium were inoculated from the overnight culture. […]
OD at λ=600 nm was determined in a HEλIOS a spectrophotometer (Thermo Electron Corporation, USA). […] Glucose and fermentation by-product analysis were determined by HPLC utilizing a Shodex® SH-1011 column with a Shodex® SH-G guard column (both available from Waters Corporation, Milford, Mass.), with diode array (DA) and refractive index (RI) detector. […]
Isobutanol was measured in oleyl alcohol, culture broth, and off-gas samples by GC method, HPLC method, and mass-spectrometry, respectively.

[3] = tested on: isobutanol producing NYLA 84 strain; experiment: Aerobic shake flask range finding with nicotinic acid (Example 7); type: cell-based, Saccharomyces cerevisiae; details: NA concentrations as low as 6 mg/L, all measurement points (2.00 h, 18.75 h, 24.5 h)
Experimental: The strain used in this Example was the isobutanol producing NYLA 84 strain, described elsewhere herein. Vitamin stock solution contained biotin, 50 mg/L; Ca-panthotenate, 1 g/L; nicotinic acid, 1 g/L; myo-inositol, 25 g/l; thiamine.HCl, 1 g/L; pyridoxine hydrochloride, 1 g/L; p-aminobenzoic acid, 0.2 g/L; riboflavin, 0.2 g/L; and folic acid, 2 mg/L. One liter (1 L) of ergosterol and Tween 80 stock solution contains 10 g of ergosterol dissolved in 500 mL 100% ethanol solution and 500 mL Tween 80.
Glucose and fermentation by-product analysis were determined by a Waters HPLC utilizing a Bio-Rad Aminex HPX-87H column with diode array (DA) operated at 210 nm and a refractive index (RI) detector at 50° C.
Several seed cultures inoculated each with a 1 mL glycerol frozen stock vial were grown in 10 mL base medium for 24 h. At the start of the range finding experiment, seed cultures were pooled and 16 mL each of the pooled seed culture were distributed into 125 mL shake flasks, 2 mL of 1 M MES buffer added, and additionally 2 mL of (a) bidestilled water, (b-d) nicotinic acid (NA) stock solutions with 60 mg/L, 600 mg/L and 1000 mg/L of NA dissolved in bidestilled water, respectively, and (e) YE stock solution with 200 g/l YE. The aerobic shake flasks with air permeable lid were incubated at 30° C. and 260 rpm. Initial OD at λ=600 nm in the cultures was 0.764.

[4] = tested on: isobutanol producing NYLA84 strain; experiment: Shake flask cultivations with nicotinic acid, vitamin solution or YEP (Example 8); type: cell-based, Saccharomyces cerevisiae
Experimental: as §1

[5] = tested on: isobutanol producing NYLA84 strain; experiment: Shake flask fermentation with addition of thiamine or yeast extract (Example 1); type: cell-based, Saccharomyces cerevisiae
Experimental: The medium contained the following ingredients per L of water: 6.7 g Yeast Nitrogen Base (YNB) w/o amino acids (Difco 0919-15-3); 2.8 g Yeast Synthetic Drop-out Medium Supplement Without histidine, leucine, tryptophan, and uracil (Sigma Y2001); 20 mL of 1% (w/v) L-leucine; 4 mL of 1% (w/v) L-tryptophan; 5 g ethanol; 3 g glucose; and 1.0 mL of the ergosterol and Tween 80. In order to obtain 10 mL ergosterol and Tween 80 solution, 100 mg of ergosterol were dissolved in 5 mL 100% EtOH and 5 mL Tween 80 and then heated until sterile and dissolved (10 min at 70° C.).
In the shake flask experiments described, the following were added to 125 mL shake flasks: 16 mL of the culture broth; 2 mL of the 1 M MES buffer; and 2 mL of the addition (H2O, YE, TH). The following additions were prepared: yeast extract (YE, final concentration 10 g/L); thiamine (TH, final concentration 6, 60, and 100 mg/L).
In order to provide the culture broth, seed cultures were started in 125 mL shake flasks with air permeable lids (10 mL medium inoculated with 1 mL inoculum from a frozen vial). […] The OD was measured at λ=600 nm (Spectrophotometer from Thermo Electron Corporation Heλios Alpha, USA). […] Ergosterol and Tween 80 was added to the medium to a final concentration of 1 mL/L. Seed (10 mL) was inoculated into 2 L shake flask with 135 mL of the medium. Separately, 2 mL of the H2O, YE, TH additions were added to new 125 ml shake flasks. Into the 2 L shake flask, 16 mL of 1 M MES buffer was added and 5.3 mL of 50% (w/w) glucose solution. Eighteen (18) mL of this culture broth was distributed into the 125 mL shake flasks with prepared additions. The aerobic shake flasks with air permeable lid were incubated at 30° C. and 260 rpm. The anaerobic shake flasks were treated in anaerobic hood and incubated at 30° C. and 260 rpm. The anaerobic shake flasks were sampled in the anaerobic hood.
The effect of thiamine on isobutanol production was analyzed using shake flask fermentation. Shake flask fermentations were performed under both aerobic and anaerobic conditions in the presence of water (negative control), yeast extract (YE, positive control, final concentration 10 g/L), or thiamine (TH, final concentration 100 mg/L) with isobutanol producing NYLA84 strain. The final biomass (X), isobutanol concentrations, and specific isobutanol production rates (qP) were measured and are shown in FIG. 1.

[6] = aerobic (25.8 h) and anaerobic (24.2 h) shake flasks
[7] = isobutanol, glucose consumption, biomass
[8] = aerobic and anaerobic shake flasks, sampled after 6.3 and 20.8 h
[9] = aerobic shake flasks, thiamine 100 mg/L

| SMILES | biomass formation compared to the negative control [1, 6] | consumption of glucose compared to the negative control [1, 6] | isobutanol production compared to the negative control [1, 6] | increase under anaerobic versus aerobic conditions [1, 7] | final isobutanol titers in the aqueous phase [2] | biomass titers compared to control culture without NA [3] | isobutanol titers compared to control culture without NA [3] | biomass formation compared to the negative control [4, 8] | consumption of glucose compared to the negative control [4, 8] | isobutanol production compared to the negative control [4, 8] | increase under anaerobic versus aerobic conditions [4, 7] | initial qP compared with yeast extract ([5]; aerobic flasks, thiamine 100 mg/L vs yeast extract 10 g/L) | initial qP higher than the control ([5]; aerobic flasks, thiamine 100 mg/L, vs water control) | initial qP (specific isobutanol production rate) ([5]; aerobic flasks, thiamine final concentration 100 mg/L, first 24 fermentation hours) | accumulation of keto-isovaleric acid in control shake flasks compared to flasks with the addition ([5]; aerobic shake flasks) | isobutanol titers at the three concentrations ([5]; aerobic shake flasks, final concentrations of 6, 60, and 100 mg/L thiamine) | final biomass concentration compared to the control [5, 9] | titers of isobutanol compared to the control [5, 9] |
| --- | --- | --- | --- | --- | --- | --- | --- | --- | --- | --- | --- | --- | --- | --- | --- | --- | --- | --- |
| O=C(O)c1cccnc1 [NA, nicotinic acid] | increased | increased | increased | significantly more pronounced under anaerobic than under aerobic conditions | improved | significantly increased | significantly increased | increased | increased | increased | significantly more pronounced under anaerobic than under aerobic conditions |  |  |  |  |  |  |  |
| Cc1ncc(C[n+]2csc(CCO)c2C)c(N)n1 [thiamine] |  |  |  |  |  |  |  |  |  |  |  | about the same as achieved with yeast extract | 75% | 0.14 g/g/h | several times higher | similar | higher | higher |
